Source: PMC5999578 (Journal of the American Chemical Society, 2018)

Biological target: VioC (Streptomyces vinaceus, UniProt Q6WZB0)
Test: X-ray crystal structure, […] A
Type: binding
Conditions: vanadyl (ferryl mimic) in place of Fe, L-hArg

VioC, sequence (Q6WZB0 whole entry): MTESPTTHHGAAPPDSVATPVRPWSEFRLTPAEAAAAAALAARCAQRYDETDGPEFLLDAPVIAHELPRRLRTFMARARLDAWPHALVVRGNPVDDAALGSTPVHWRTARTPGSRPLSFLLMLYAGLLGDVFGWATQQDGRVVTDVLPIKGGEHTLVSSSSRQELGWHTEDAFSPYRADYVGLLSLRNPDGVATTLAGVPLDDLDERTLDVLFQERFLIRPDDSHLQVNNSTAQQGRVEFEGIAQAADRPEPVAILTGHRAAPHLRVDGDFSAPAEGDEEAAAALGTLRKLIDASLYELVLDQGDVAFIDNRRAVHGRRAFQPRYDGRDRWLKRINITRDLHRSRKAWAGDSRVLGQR

Compound: O=C(O)CCC(=O)O [succinate]
- X-ray crystal structure, 1.70 A: crystals of the VioC•VO•succinate•L-hArg complex
